The results in this text go back to ChEMBL document CHEMBL4477222, “Discovery of Novel Thiophene-Based, Thumb Pocket 2 Allosteric Inhibitors of the Hepatitis C NS5B Polymerase with Improved Potency and Physicochemical Profiles” (J Med Chem, 2016).

As a reminder, the clearance is the rate of elimination divided by the concentration. Lower therefore signals a low capacity for elimination.

This data set in a line: Clearance in Fischer 344 rat at 1 mg/kg, iv through bolus administration. The class given is ADME, organism-based. The settings on record: in vivo.

In turn, `CC(C)(C)C#Cc1cc(N(CC(=O)N2CCOCC2)C(=O)[C@H]2CC[C@H](C)CC2)c(C(=O)O)s1` had a clearance of 13.8 mL/min/kg.
